# Test results as given in paper PMC12257542, “A Radiolabeled Photoswitchable G Protein-Coupled Receptor Antagonist Enlightens Ligand Binding Kinetics Associated with Photoswitching” (Journal of the American Chemical Society, 2025).
# Several values for one entry are separate records, joined by “and”; a condition that tells them apart may be missing. Identical values can stand only once. Like-named read-outs stand apart in the source and are kept apart here.
# Columns and labels:
# H3R [1] = biological target: T1, H3R (Homo sapiens, UniProt Q9Y5N1); conditions: ref Hauwert et al., cited from earlier work
# T1 sequence (Q9Y5N1 whole entry): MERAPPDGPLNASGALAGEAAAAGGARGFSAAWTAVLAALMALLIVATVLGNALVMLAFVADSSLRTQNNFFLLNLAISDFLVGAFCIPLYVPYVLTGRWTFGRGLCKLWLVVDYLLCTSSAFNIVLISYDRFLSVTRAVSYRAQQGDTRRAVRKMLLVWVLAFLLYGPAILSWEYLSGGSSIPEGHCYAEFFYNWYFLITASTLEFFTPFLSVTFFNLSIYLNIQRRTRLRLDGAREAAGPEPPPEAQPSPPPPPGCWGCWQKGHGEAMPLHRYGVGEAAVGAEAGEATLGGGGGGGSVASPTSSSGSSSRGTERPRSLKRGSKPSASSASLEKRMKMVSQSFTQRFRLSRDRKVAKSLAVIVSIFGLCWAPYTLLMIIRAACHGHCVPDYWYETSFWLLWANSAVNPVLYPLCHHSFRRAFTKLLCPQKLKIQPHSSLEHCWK
# [2] = parameters: method as in Hauwert et al.; conditions: 25 μM in HBSS buffer containing 1% DMSO; ref Hauwert et al.; cited from earlier work
# [3] = parameters: method as in Hauwert et al.; conditions: approximate, extrapolated to 20 °C; ref Hauwert et al.; cited from earlier work
# [4] = parameters: method as in Hauwert et al.; conditions: ref Hauwert et al., cited from earlier work
# [5] = Photostationary state area percentages by LC-MS at the isosbestic point; assay type: physicochemical; conditions: for PSScis (area %cis): after illumination of trans isomer with 365 ± 10 nm at 1 mM in DMSO for 10 min
# [6] = UV-vis spectra of trans and PSS cis states in HBSS buffer; assay type: physicochemical; conditions: 25 μM in HBSS buffer containing 1% DMSO
# Description: (§1) Experimental procedures – Photochemistry
# UV−Vis spectra were recorded using a Thermo-scientific Evolution 201 PC spectrophotometer equipped with a thermostated cell holder set at 20 °C. Fits of UV−vis spectroscopy data were generated using Prism 10.1.0. Illumination for almost all photochemical experiments was executed using a Sutter instruments Lambda LS with a 300 W full-spectrum lamp connected to a Sutter instruments Lambda 10-3 optical filter changer equipped with 360 ± 10 nm, 434 ± 9 nm 494 ± 9 nm, or a Lambda 721 optical beam combiner system equipped with 365 ± 11 nm and 506 ± 14 nm filter. The light intensity used for the lambda 10-3 optical filter is 0.93 mW/mm2 using the 360 ± 20 nm filter, 0.79 mW/mm2 for the 434 ± 9 nm filter, 0.77 mW/mm2 for the 494 ± 9 nm filter as measured using a Thorlabs PM16−401 power meter. The light intensity used for the lambda 721 optical beam combiner is 200 mW using the 365 ± 11 nm filter and 60 mW for the 506 ± 12 nm filter. For photochemical analyses, illuminations were performed in Hellma Suprasil quartz 114QS cuvettes. For the dynamic illuminations, a 4-way cuvette holder (Avantes) was used. The left outlet of the holder is connected to an Avantes AvaLight-DH-S-BAL Deuterium lamp. The right outlet is connected through a fiber to an AvaSpec UV/Vis spectrometer. The lower outlet is connected to a Lambda 721 optical beam combiner system equipped with 365 ± 11 nm and 506 ± 14 nm filter illumination means. The upper outlet is covered with a black cap. The temperature of the solution in the cuvette (20 °C) is controlled by Q-blue Wireless Temperature Control software. […]
# The typical distance […]
# between light source and vial or cuvette was 2 cm.
# H3R [7] = biological target: T1, H3R; assay: [3H]NAMH competition radioligand binding on cell homogenates overexpressing H3R; conditions: for Fold Ki shift: (high-affinity state)/(low-affinity state); for Ki: [3H]NAMH competition, n = 3
# [8] = Thermal relaxation of PSS cis states (Arrhenius extrapolation); assay type: physicochemical; conditions: approximate; HBSS buffer + 1% DMSO, extrapolated to 20 °C
# Description: as §1
# UV−Vis spectra were recorded using a Thermo-scientific Evolution 201 PC spectrophotometer equipped with a thermostated cell holder set at 20 °C. Fits of UV−vis spectroscopy data were generated using Prism 10.1.0. Illumination for almost all photochemical experiments was executed using a Sutter instruments Lambda LS with a 300 W full-spectrum lamp connected to a Sutter instruments Lambda 10-3 optical filter changer equipped with 360 ± 10 nm, 434 ± 9 nm 494 ± 9 nm, or a Lambda 721 optical beam combiner system equipped with 365 ± 11 nm and 506 ± 14 nm filter. The light intensity used for the lambda 10-3 optical filter is 0.93 mW/mm2 using the 360 ± 20 nm filter, 0.79 mW/mm2 for the 434 ± 9 nm filter, 0.77 mW/mm2 for the 494 ± 9 nm filter as measured using a Thorlabs PM16−401 power meter. The light intensity used for the lambda 721 optical beam combiner is 200 mW using the 365 ± 11 nm filter and 60 mW for the 506 ± 12 nm filter. For photochemical analyses, illuminations were performed in Hellma Suprasil quartz 114QS cuvettes. For the dynamic illuminations, a 4-way cuvette holder (Avantes) was used. The left outlet of the holder is connected to an Avantes AvaLight-DH-S-BAL Deuterium lamp. The right outlet is connected through a fiber to an AvaSpec UV/Vis spectrometer. The lower outlet is connected to a Lambda 721 optical beam combiner system equipped with 365 ± 11 nm and 506 ± 14 nm filter illumination means. The upper outlet is covered with a black cap. The temperature of the solution in the cuvette (20 °C) is controlled by Q-blue Wireless Temperature Control software.
# Thermal relaxation experiments and Arrhenius extrapolations were performed according to Priimagi et al20, using a compound concentration of 25 μM in HBSS +1% DMSO and temperatures of 50, 60, and 70 °C. Illuminations for pharmacological experiments were performed in cylindrical clear glass vials with a volume of 4.5 mL. The typical distance between light source and vial or cuvette was 2 cm.
# H3R [9] = biological target: T1, H3R; assay type: binding
# Description: (§2) To determine non-specific
# (§3) specific binding from the total binding.
# (§4) intervals ranging from 0-20 minutes.
# (§5) was measured as described above.
# (§6) model to obtain Kd values.
# H3R [10] = biological target: T1, H3R; assay: Association and dissociation radioligand binding experiments with [3H]3f; conditions: for dissociation t 1/2: t1/2 = ln 2/k off; for Kd: from k off/k on, read-out: pK d(k in) calculated kinetic affinity (converted)
# Description: as §2, §3, §4, §5, §6
# hH3R = hH3R (Homo sapiens, UniProt Q9Y5N1); assay: Competition binding of non-labeled ligands with trans-[3H]3f on hH3R-expressing cell homogenates
# Chain of hH3R (Q9Y5N1 whole entry): as above
# H3R [11] = biological target: T1, H3R; assay: Functional H3R NanoBiT-PKA (cAMP sensor) assay in transiently transfected HEK293T cells; assay type: cell-based; conditions: inhibition of forskolin-stimulated cAMP signal, agonist alone
# [12] = ↑ higher affinity of PSS cis state than trans
# [13] = illumination of PSS cis state with 506 ± 20 nm at 1 mM in DMSO for 10 min
# [14] = ↓ lower affinity of PSS cis state than trans
structure (smiles),measurement,setting,value
c1ccc(/N=N/c2ccc(OCCCN3CCCCC3)cc2)cc1 [Compound 1],pKi PSScis ± SEM,"H3R [1]; PSS cis state, [3H]NAMH competition",8.1 ± 0.1
same,pKi trans ± SEM,"H3R [1]; trans isomer, [3H]NAMH competition",7.3 ± 0.1
same,Fold Ki shift,H3R [1]; [12],6.3 ↑ fold
same,λmax cis,[2],432 nm
same,λmax trans,[2],344 nm
same,Half-life (thermal relaxation of PSS cis state),[3],264 h
same,PSScis (area %cis),[4]; after illumination of trans isomer with 365 ± 10 nm,97 area %
same,PSStrans (area %trans),[4]; illumination of PSS cis state with 434 ± 20 nm,68 area %
c1ccc(/N=N/c2ccc(O[C@H]3C[C@H](N4CCCCC4)C3)cc2)cc1 [Compound 2],PSScis (area %cis),[5],97 area %
same,PSStrans (area %trans),[5]; illumination of PSS cis state with 434 ± 20 nm at 1 mM in DMSO for 10 min,74 area %
same,λmax cis,[6],425 nm
same,λmax trans,[6],350 nm
same,Fold Ki shift,H3R [7]; [12],4 fold and 4.0 ↑ fold
same,Ki,"H3R [7]; pKi PSScis ± SEM, PSS cis state",2.51 nM
same,Half-life (thermal relaxation of PSS cis state),[8],48 h
Cc1nn(C)c(C)c1/N=N/c1ccc(O[C@H]2C[C@H](N3CCCCC3)C2)cc1 [Compound 3a],PSScis (area %cis),[5],95 area %
same,PSStrans (area %trans),[5]; [13],93 area %
same,λmax cis,[6],439 nm
same,λmax trans,[6],347 nm
same,Fold Ki shift,H3R [7]; [14],7.9 ↓ fold
same,fold improved Ki value of trans isomer compared to trans-2,H3R [7]; trans isomers,more than 10 fold
same,Half-life (thermal relaxation of PSS cis state),[8],432 h
Cc1nn(C2CCCCC2)c(C)c1/N=N/c1ccc(O[C@H]2C[C@H](N3CCCCC3)C2)cc1 [Compound 3b],PSScis (area %cis),[5],88 area %
same,PSStrans (area %trans),[5]; [13],94 area %
same,λmax cis,[6],440 nm
same,λmax trans,[6],351 nm
same,Fold Ki shift,H3R [7]; [14],12.6 ↓ fold
same,Half-life (thermal relaxation of PSS cis state),[8],170 h
Cc1nn(C2CCOCC2)c(C)c1/N=N/c1ccc(O[C@H]2C[C@H](N3CCCCC3)C2)cc1 [Compound 3c],PSScis (area %cis),[5],94 area %
same,PSStrans (area %trans),[5]; [13],95 area %
same,λmax cis,[6],440 nm
same,λmax trans,[6],349 nm
same,Fold Ki shift,H3R [7]; [14],20.0 ↓ fold
same,Half-life (thermal relaxation of PSS cis state),[8],600 h
Cc1nn(C2CCNCC2)c(C)c1/N=N/c1ccc(O[C@H]2C[C@H](N3CCCCC3)C2)cc1 [Compound 3e],PSScis (area %cis),[5],99 area %
same,PSStrans (area %trans),[5]; [13],92 area %
same,λmax cis,[6],434 nm
same,λmax trans,[6],346 nm
same,Fold Ki shift,H3R [7]; [14],25.1 ↓ fold
same,Ki,"H3R [7]; pKi trans ± SEM, trans isomer",0.501 nM
same,Half-life (thermal relaxation of PSS cis state),[8],696 h
[3H]C([3H])([3H])N1CCC(n2nc(C)c(/N=N/c3ccc(O[C@H]4C[C@H](N5CCCCC5)C4)cc3)c2C)CC1 [[^3H]3f],H3R binding remaining after exposure to 365 nm light,"H3R [9]; prebound trans state 0.5 nM, no competitor present",approximately 0%
same,dissociation t 1/2,"H3R [9]; prebound trans state, 365 nm light, t1/2 = ln 2/k off",48 ± 12 s
same,fold faster dissociation kinetics upon 365 nm illumination,"H3R [9]; prebound trans, 365 nm light versus dissociation of dark trans-[3H]3f",6.2 fold
same,time at which binding to H3R reaches equilibrium,H3R [10]; 0.5 nM trans state,15 min
same,kon,H3R [10]; PSS cis state (preilluminated trans-[3H]3f),217000 M⁻¹ s⁻¹
same,dissociation t 1/2,"H3R [10]; PSS cis state, clobenpropit",6.2 ± 0.2 min
same,dissociation t 1/2,"H3R [10]; PSS cis state, clobenpropit, listed as [^3H]3f-PSS cis",6.2 ± 0.4 min
same,koff,"H3R [10]; PSS cis state, dissociation initiated with clobenpropit",0.00183 s⁻¹
same,Kd,H3R [10]; PSS cis state,12.6 nM
same,fold lower k on value compared to trans-[3H]3f,H3R [10]; PSS cis versus trans,10 fold
same,kon,"H3R [10]; trans state, 0.5 nM",2.15e+06 M⁻¹ s⁻¹
same,dissociation t 1/2,"H3R [10]; trans state, clobenpropit (10 μM)",4.9 ± 0.4 min
same,koff,"H3R [10]; trans state, dissociation initiated with 10 μM clobenpropit",0.0025 s⁻¹
same,Kd,H3R [10]; trans state,1.26 nM
"c1nc(CC2CCNCC2)c[nH]1 [immepip, reference compound]",Ki,hH3R,3.16 nM
"c1cc(Cc2cnc[nH]2)ccn1 [immethridine, reference compound]",EC50,H3R [11],0.794 nM
